Legend:
Assay in all cases: relative viability (nuclei count vs DMSO), 5 days (fraction); higher = more cells survive
[1] = system: HOP-62
In short: (§1)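 Medians of duplicate plates are given as relative viability. That measure is the nuclei count in treated wells divided by the count in vehicle wells. Counts were taken on 4× images of lung cancer cell lines in 1536-well plates, 5 days after pin-tool dosing the day after seeding with one drug alone or a fixed anchor-drug dose plus five library-drug doses (not always all listed) in √10 steps.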

[2] = system: NCI-H1792
In short: as §1

[3] = system: NCI-H2009
In short: as §1

[4] = system: LU99A
In short: as §1

[5] = system: NCI-H460
In short: as §1

[6] = system: LXF-289
In short: as §1

[7] = system: NCI-H1915
In short: as §1

[8] = system: SK-LU-1
In short: as §1

[9] = system: COR-L 105
In short: as §1

[10] = system: NCI-H2085
In short: as §1

[11] = system: HCC-366
In short: as §1

[12] = system: EPLC-272H
In short: as §1

[13] = system: NCI-H1793
In short: as §1

[14] = system: UMC-11
In short: as §1

[15] = system: NCI-H1666
In short: as §1

[16] = system: LC-2-ad
In short: as §1

[17] = system: NCI-H2170
In short: as §1

[18] = system: NCI-H1944
In short: as §1

[19] = system: A-427
In short: as §1

[20] = system: HCC-78
In short: as §1

SMILES: Cc1sc2c(c1C)C(c1ccc(Cl)cc1)=N[C@@H](CC(=O)OC(C)(C)C)c1nnc(C)n1-2 [JQ1] + CC1(C)CCC(c2ccc(Cl)cc2)=C(CN2CCN(c3ccc(C(=O)NS(=O)(=O)c4ccc(N[C@H](CCN5CCOCC5)CSc5ccccc5)c(S(=O)(=O)C(F)(F)F)c4)cc3)CC2)C1 [Navitoclax] (partner 0.5 µM)
- relative viability ([1]; first compound 0.04 µM): 0.926
- relative viability ([1]; first compound 0.1265 µM): 0.841
- relative viability ([1]; first compound 0.4 µM): 0.516
- relative viability ([1]; first compound 1.265 µM): 0.133
- relative viability ([1]; first compound 4 µM): 0.0774
- relative viability ([2]; first compound 0.04 µM): 0.656
- relative viability ([2]; first compound 0.4 µM): 0.708
- relative viability ([2]; first compound 1.265 µM): 0.622
- relative viability ([2]; first compound 4 µM): 0.31
- relative viability ([3]; first compound 0.04 µM): 1.2
- relative viability ([3]; first compound 0.1265 µM): 0.938
- relative viability ([3]; first compound 0.4 µM): 0.837
- relative viability ([3]; first compound 1.265 µM): 0.359
- relative viability ([3]; first compound 4 µM): 0.388
- relative viability ([4]; first compound 0.04 µM): 0.746
- relative viability ([4]; first compound 0.1265 µM): 0.699
- relative viability ([4]; first compound 0.4 µM): 0.201
- relative viability ([4]; first compound 1.265 µM): 0.137
- relative viability ([4]; first compound 4 µM): 0.146
- relative viability ([5]; first compound 0.04 µM): 1.02
- relative viability ([5]; first compound 0.1265 µM): 0.671
- relative viability ([5]; first compound 0.4 µM): 0.499
- relative viability ([5]; first compound 1.265 µM): 0.0782
- relative viability ([5]; first compound 4 µM): 0.0465
- relative viability ([6]; first compound 0.04 µM): 0.964
- relative viability ([6]; first compound 0.1265 µM): 0.975
- relative viability ([6]; first compound 0.4 µM): 0.863
- relative viability ([6]; first compound 1.265 µM): 0.731
- relative viability ([6]; first compound 4 µM): 0.29
- relative viability ([7]; first compound 0.04 µM): 0.781
- relative viability ([7]; first compound 0.1265 µM): 0.567
- relative viability ([7]; first compound 0.4 µM): 0.698
- relative viability ([7]; first compound 1.265 µM): 0.419
- relative viability ([7]; first compound 4 µM): 0.198
- relative viability ([8]; first compound 0.04 µM): 0.841
- relative viability ([8]; first compound 0.1265 µM): 0.784
- relative viability ([8]; first compound 0.4 µM): 0.791
- relative viability ([8]; first compound 1.265 µM): 0.0557
- relative viability ([8]; first compound 4 µM): 0.0951
- relative viability ([9]; first compound 0.04 µM): 0.707
- relative viability ([9]; first compound 0.1265 µM): 0.567
- relative viability ([9]; first compound 0.4 µM): 0.462
- relative viability ([9]; first compound 1.265 µM): 0.282
- relative viability ([9]; first compound 4 µM): 0.326
- relative viability ([10]; first compound 0.04 µM): 1.08
- relative viability ([10]; first compound 0.1265 µM): 1.1
- relative viability ([10]; first compound 0.4 µM): 0.902
- relative viability ([10]; first compound 1.265 µM): 0.561
- relative viability ([10]; first compound 4 µM): 0.643
- relative viability ([11]; first compound 0.04 µM): 1.05
- relative viability ([11]; first compound 0.4 µM): 0.915
- relative viability ([11]; first compound 1.265 µM): 0.63
- relative viability ([11]; first compound 4 µM): 0.115
- relative viability ([12]; first compound 0.04 µM): 1.14
- relative viability ([12]; first compound 0.1265 µM): 0.958
- relative viability ([12]; first compound 0.4 µM): 1.06
- relative viability ([12]; first compound 1.265 µM): 0.462
- relative viability ([12]; first compound 4 µM): 0.321
- relative viability ([13]; first compound 0.04 µM): 0.408
- relative viability ([13]; first compound 0.1265 µM): 0.345
- relative viability ([13]; first compound 0.4 µM): 0.515
- relative viability ([13]; first compound 1.265 µM): 0.444
- relative viability ([13]; first compound 4 µM): 0.377
- relative viability ([14]; first compound 0.04 µM): 0.266
- relative viability ([14]; first compound 0.1265 µM): 0.292
- relative viability ([14]; first compound 0.4 µM): 0.205
- relative viability ([14]; first compound 1.265 µM): 0.134
- relative viability ([14]; first compound 4 µM): 0.142
- relative viability ([15]; first compound 0.04 µM): 0.926
- relative viability ([15]; first compound 0.1265 µM): 0.899
- relative viability ([15]; first compound 0.4 µM): 0.787
- relative viability ([15]; first compound 1.265 µM): 0.438
- relative viability ([15]; first compound 4 µM): 0.513
- relative viability ([16]; first compound 0.04 µM): 0.486
- relative viability ([16]; first compound 0.1265 µM): 0.58
- relative viability ([16]; first compound 0.4 µM): 0.376
- relative viability ([16]; first compound 1.265 µM): 0.196
- relative viability ([16]; first compound 4 µM): 0.175
- relative viability ([17]; first compound 0.04 µM): 0.652
- relative viability ([17]; first compound 0.1265 µM): 0.641
- relative viability ([17]; first compound 0.4 µM): 0.452
- relative viability ([17]; first compound 1.265 µM): 0.279
- relative viability ([17]; first compound 4 µM): 0.285
- relative viability ([18]; first compound 0.04 µM): 1.02
- relative viability ([18]; first compound 0.1265 µM): 0.922
- relative viability ([18]; first compound 0.4 µM): 1.07
- relative viability ([18]; first compound 1.265 µM): 0.762
- relative viability ([18]; first compound 4 µM): 0.617
- relative viability ([19]; first compound 0.04 µM): 0.997
- relative viability ([19]; first compound 0.1265 µM): 0.974
- relative viability ([19]; first compound 0.4 µM): 1
- relative viability ([19]; first compound 1.265 µM): 0.854
- relative viability ([19]; first compound 4 µM): 0.784
- relative viability ([20]; first compound 0.04 µM): 0.799
- relative viability ([20]; first compound 0.1265 µM): 0.761
- relative viability ([20]; first compound 0.4 µM): 0.465
- relative viability ([20]; first compound 1.265 µM): 0.285
- relative viability ([20]; first compound 4 µM): 0.242
